Patent US6525059B1, “Substituted pyrazoles as p38 kinase inhibitors” (G. D. Searle & Company, priority 1998, dated 2003)
Where “and” joins values, the source holds several entries; their conditions need not be identical. Equal values may be shown once. Where a name gives a salt, the structure may show the parent alone. Read-outs that look alike come from different tables or passages of the source.

Legend:
[1] = molecular target: T1, human GST-p38 kinase alpha (Homo sapiens, UniProt Q16539); assay: p38 kinase in vitro assay, second format, phosphorylation of EGFRP with 33P-ATP; type: biochemical; conditions: read-out: p38α Kinase Assay IC50
T1 construct: The coding region of the human p38a cDNA was obtained by PCR-amplification from RNA isolated from the human monocyte cell line THP.1; made in house; host or cells: E. coli DH10B
Method: A second assay format was also employed that is based on p38 kinase alpha induced phosphorylation of EGFRP (epidermal growth factor receptor peptide, a 21 mer) in the presence of ^33P-ATP. Compounds were tested in 10 fold serial dilutions over the range of 100 μM to 0.001 μM in 10% DMSO. Each concentration of inhibitor was tested in triplicate. Compounds were evaluated in 50 μl reaction volumes in the presence of 25 mM Hepes pH 7.5, 10 mM magnesium acetate, 4% glycerol, 0.4% bovine serum albumin, 0.4 mM DTT, 50 μM unlabeled ATP, 25 μg EGFRP (200 μM), and 0.05 uCi gamma ^33P-ATP. Reactions were initiated by addition of 0.09 μg of activated, purified human GST-p38 kinase alpha. Activation was carried out using GST-MKK6 (5:1, p38: MKK6) for one hour at 30° C. in the presence of 50 μM ATP. Following incubation for 60 minutes at room temperature, the reaction was stopped by addition of 150 μl of AG 1×8 resin in 900 mM sodium formate buffer, pH 3.0 (1 volume resin to 2 volumes buffer). The mixture was mixed three times with pipetting and the resin was allowed to settle. A total of 50 μl of clarified solution head volume was transferred from the reaction wells to Microlite-2 plates. 150 μl of Microscint 40 was then added to each well of the Microlite plate, and the plate was sealed, mixed, and counted.

human TNF = assay: TNF inhibition: human whole blood assay; type: cell-based; conditions: Homo sapiens, LPS, read-out: TNF Inhibition-Human Whole Blood Assay
TNF-α = assay: Rat assay: LPS-challenged rats, serum TNF-α by ELISA; type: in vivo; conditions: Rattus norvegicus, po; for inhibition in vivo at 10 mg/kg: Table 8, dose 10.0 mg/kg; for inhibition in vivo at 5 mg/kg / inhibition in vivo at 1 mg/kg / inhibition in vivo at 3 mg/kg: read-out: Rat LPS Assay % Inhibition; for inhibition in vivo at 3 mg/kg: Table 8, dose 3.0 mg/kg

T1 sequence (Q16539 whole entry): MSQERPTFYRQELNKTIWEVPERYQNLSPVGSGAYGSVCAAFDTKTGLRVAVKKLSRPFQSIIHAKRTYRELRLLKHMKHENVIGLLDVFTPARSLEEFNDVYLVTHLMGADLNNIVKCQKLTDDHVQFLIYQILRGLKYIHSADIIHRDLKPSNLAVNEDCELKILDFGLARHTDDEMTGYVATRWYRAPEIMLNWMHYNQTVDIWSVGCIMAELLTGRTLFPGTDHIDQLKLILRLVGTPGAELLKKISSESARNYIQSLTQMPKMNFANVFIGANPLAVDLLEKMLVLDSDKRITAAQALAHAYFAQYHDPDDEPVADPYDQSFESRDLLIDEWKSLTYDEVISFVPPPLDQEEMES

Compound	IC50 ([1]; Table 9, 10% DMSO)	IC50 (human TNF; Table 9, human whole blood) [nM]	inhibition in vivo at 20 mg/kg (TNF-α; Table 9, dose 20 mg/kg) [%]	IC50 ([1]; Table 8, 10% DMSO)	IC50 (human TNF; Table 8, human whole blood) [nM]	other results
CCOC(=O)N1CCN(c2[nH]nc(-c3ccccc3)c2-c2ccncc2)CC1 [Example A-371, ethyl 4-[5-phenyl-4-(4-pyridinyl)-1H-pyrazol-3-yl]-1-piperazinecarboxylate]	7900 nM	25000	52			
CCN(CC)CCCC(C)Nc1[nH]nc(-c2ccc(F)cc2)c1-c1ccncc1 (stereo not drawn) [Example A-359, N1,N1,-diethyl-N4-[5-(4-fluorophenyl)-4-(4-pyridinyl)-1H-pyrazol-3-yl]-1,4-pentanediamine]	300 nM	1000	70			
Fc1ccc(-c2n[nH]c(N3CCC(N4CCCC4)CC3)c2-c2ccncc2)cc1 [Example A-357, 4-[3-(4-fluorophenyl)-5-(4-(1-pyrrolidinyl)-1-piperidinyl]-1H-pyrazol-4-yl]pyridine, trihydrochloride]	120 nM	250	74			
Fc1ccc(-c2n[nH]c(CC3CCNCC3)c2-c2ccncc2)cc1 [Example A-315, 4-[3-(4-fluorophenyl)-5-(4-piperidinylmethyl)-1H-pyrazol-4-yl]pyridine]				49 nM	1750	
CN1CCN(c2n[nH]c(-c3ccc(F)cc3)c2-c2ccncc2)CC1 [Example A-317, 1-[5-(4-fluorophenyl)-4-(4-pyridinyl)-1H-pyrazol-3-yl]-4-methylpiperazine, dihydrate]				70 nM	450	inhibition in vivo at 10 mg/kg (TNF-α): 69%
CCOC(=O)N1CCC(Nc2cc(-c3c[nH]nc3-c3ccc(F)cc3)ccn2)CC1 [Example A-356, ethyl 4-[[4-[3-(4-fluorophenyl)-1H-pyrazol-4-yl]-2-pyridinyl]amino]-1-piperidinecarboxylate]	< 10 nM	5300	73			
Clc1ccc(-c2n[nH]c(SCCN3CCCC3)c2-c2ccncc2)cc1 [Example A-460]						IC50 ([1]; Table 10, 10% DMSO, @ 1.0 hour): 1840 nM; IC50 (human TNF; Table 10, human whole blood): 8910 nM
CCN(CC)CCCC(C)Nc1cc(-c2c[nH]nc2-c2ccc(Cl)cc2)ccn1 (stereo not drawn) [Example A-369, N4-[4-[3-(4-chlorophenyl)-1H-pyrazol-4-yl]-2-pyridinyl]-N1,N1-diethyl-1,4-pentanediamine]	19 nM and 11 nM and 2.7 nM	840	94			inhibition in vivo at 5 mg/kg (TNF-α; Table 9, dose 5 mg/kg): 52%
CC(C)C[C@@H](CO)Nc1cc(-c2c[nH]nc2-c2ccc(F)cc2)ccn1 [Example A-354, (2S)-2-[[4-[3-(4-fluorophenyl)-1H-pyrazol-4-yl]-2-pyridinyl]amino]-4-methyl-1-pentanol]	220 nM	25000	0			
CCN(CC)CCCC(C)Nc1cc(-c2c[nH]nc2-c2ccc(F)cc2)ccn1 (stereo not drawn) [Example A-377, N1,N1-diethyl-N4-[4-[3-(4-fluorophenyl)-1H-pyrazol-4-yl]-2-pyridinyl]-1,4-pentanediamine]	4 nM and 1.9 nM	670	84			inhibition in vivo at 1 mg/kg (TNF-α; Table 9, dose 1 mg/kg): 32%; inhibition in vivo at 5 mg/kg (TNF-α; Table 9, dose 5 mg/kg): 67%
CCN(CC)C1CCN(c2n[nH]c(-c3ccc(F)cc3)c2-c2ccncc2)CC1 [Example A-388, 1-[5-(4-fluorophenyl)-4-(4-pyridinyl)-1H-pyrazol-3-yl]-N,N-diethyl-4-piperidinamine, trihydrochloride]	210 nM	340	97			inhibition in vivo at 5 mg/kg (TNF-α; Table 9, dose 5 mg/kg): 67%
C[C@@H](O)CNc1cc(-c2c[nH]nc2-c2ccc(F)cc2)ccn1 [Example A-368, (2R)-1-[[4-[3-(4-fluorophenyl)-1H-pyrazol-4-yl]-2-pyridinyl]amino]-2-propanol]	42 nM	660	88			inhibition in vivo at 1 mg/kg (TNF-α; Table 9, dose 1 mg/kg): 28%; inhibition in vivo at 5 mg/kg (TNF-α; Table 9, dose 5 mg/kg): 41%
Fc1ccc(-c2n[nH]cc2-c2ccnc(NCC3CCNCC3)c2)cc1 [Example A-351, 4-[3-(4-fluorophenyl)-1H-pyrazol-4-yl]-N-(4-piperidinylmethyl)-2-pyridinamine]	270 nM	490	0			
Clc1ccc(-c2[nH]nc(N3CCN(c4ccccc4)CC3)c2-c2ccncc2)cc1 [Example A-335, 1-[5-(4-chlorophenyl)-4-(4-pyridinyl)-1H-pyrazol-3-yl]-4-phenylpiperazine]				89900 nM	> 25000	
CS(=O)(=O)c1[nH]nc(-c2ccc(F)cc2)c1-c1ccncc1 [Example A-437, 3-(4-fluorophenyl)-5-(methylsulfonyl)-4-pyridin-4-yl-1H-pyrazole]						IC50 ([1]; Table 10, 10% DMSO, @ 1.0 hour): 7760 nM; IC50 (human TNF; Table 10, human whole blood): > 25000 nM
C#CCn1nc(N2CCNCC2)c(-c2ccncc2)c1-c1ccc(Cl)cc1 [Example A-318, 1-[5-(4-chlorophenyl)-4-(4-pyridinyl)-1-(2-propynyl)-1H-pyrazol-3-yl]piperazine, trihydrochloride monohydrate]				580 nM and 370 nM and 600 nM	167	inhibition in vivo at 3 mg/kg (TNF-α): 54%
Clc1ccc(-c2[nH]nc(NC3CCNCC3)c2-c2ccncc2)cc1 [Example A-332, N-[5-(4-chlorophenyl)-4-(4-pyridinyl)-3H-pyrazol-3-yl]-4-piperidineamine, trihydrochloride, monohydrate]				15 nM and < 100 nM	450	inhibition in vivo at 1 mg/kg (TNF-α; Table 8, dose 1.0 mg/kg): 33%; inhibition in vivo at 3 mg/kg (TNF-α): 26%; inhibition in vivo at 5 mg/kg (TNF-α; Table 8, dose 5.0 mg/kg): 25%; inhibition in vivo at 10 mg/kg (TNF-α): -85%
NC1CCN(c2[nH]nc(-c3ccc(F)cc3)c2-c2ccncc2)CC1 [Example A-365, 1-[5-(4-fluorophenyl)-4-(4-pyridinyl)-1H-pyrazol-3-yl]-4-piperidinamine, trihydrochloride]	32 nM	57	95			inhibition in vivo at 1 mg/kg (TNF-α; Table 9, dose 1 mg/kg): 12%; inhibition in vivo at 5 mg/kg (TNF-α; Table 9, dose 5 mg/kg): 50%
CN(C)C1CCN(c2[nH]nc(-c3ccc(F)cc3)c2-c2ccncc2)CC1 [Example A-360, 1-[5-(4-fluorophenyl)-4-(4-pyridinyl)-1H-pyrazol-3-yl]-N,N-dimethyl-4-piperidinamine, trihydrochloride]	60 nM	500	95			inhibition in vivo at 1 mg/kg (TNF-α; Table 9, dose 1 mg/kg): 0%; inhibition in vivo at 5 mg/kg (TNF-α; Table 9, dose 5 mg/kg): 14%
Fc1ccc(-c2n[nH]c(N3CCSCC3)c2-c2ccncc2)cc1 [Example A-438]						IC50 ([1]; Table 10, 10% DMSO, @ 1.0 hour): 560 nM; IC50 (human TNF; Table 10, human whole blood): > 25000 nM; inhibition in vivo at 20 mg/kg (TNF-α; Table 10, dose 20.0 mg/kg): 49%
Fc1ccc(-c2[nH]nc(NC3CCNCC3)c2-c2ccncc2)cc1 [Example A-339, N-[5-(4-fluorophenyl)-4-(4-pyridinyl)-1H-pyrazol-3-yl]-4-piperidinamine, trihydrochloride]				52 nM	56	
CCOC(=O)N1CCC(Nc2n[nH]c(-c3ccc(F)cc3)c2-c2ccncc2)CC1 [Example A-337, Ethyl 4-[[5-(4-fluorophenyl)-4-(4-pyridinyl)-1H-pyrazol-3-yl]amino]-1-piperidinecarboxylate, monohydrate]				1350 nM	> 25000	
CN1CCC(Nc2n[nH]c(-c3ccc(F)cc3)c2-c2ccncc2)CC1 [Example A-338, N-[5-(4-fluorophenyl)-4-(pyridinyl)-1H-pyrazol-3-yl]-1-methyl-4-piperidinamine]				18 nM	59	
